Here are results for 2 compounds from PMC5342726, “Identification of small molecule inhibitors of ERCC1-XPF that inhibit DNA repair and potentiate cisplatin efficacy in cancer cells” (Oncotarget, 2016).

The target in one experiment is T1, ERCC1-XPF (Homo sapiens, UniProt P07992+Q92889).
T1 construct: made in house; host or cells: Sf9 insect cells, baculovirus (obtained from Aziz Sancar)
T1 sequence (Q92889 1-916): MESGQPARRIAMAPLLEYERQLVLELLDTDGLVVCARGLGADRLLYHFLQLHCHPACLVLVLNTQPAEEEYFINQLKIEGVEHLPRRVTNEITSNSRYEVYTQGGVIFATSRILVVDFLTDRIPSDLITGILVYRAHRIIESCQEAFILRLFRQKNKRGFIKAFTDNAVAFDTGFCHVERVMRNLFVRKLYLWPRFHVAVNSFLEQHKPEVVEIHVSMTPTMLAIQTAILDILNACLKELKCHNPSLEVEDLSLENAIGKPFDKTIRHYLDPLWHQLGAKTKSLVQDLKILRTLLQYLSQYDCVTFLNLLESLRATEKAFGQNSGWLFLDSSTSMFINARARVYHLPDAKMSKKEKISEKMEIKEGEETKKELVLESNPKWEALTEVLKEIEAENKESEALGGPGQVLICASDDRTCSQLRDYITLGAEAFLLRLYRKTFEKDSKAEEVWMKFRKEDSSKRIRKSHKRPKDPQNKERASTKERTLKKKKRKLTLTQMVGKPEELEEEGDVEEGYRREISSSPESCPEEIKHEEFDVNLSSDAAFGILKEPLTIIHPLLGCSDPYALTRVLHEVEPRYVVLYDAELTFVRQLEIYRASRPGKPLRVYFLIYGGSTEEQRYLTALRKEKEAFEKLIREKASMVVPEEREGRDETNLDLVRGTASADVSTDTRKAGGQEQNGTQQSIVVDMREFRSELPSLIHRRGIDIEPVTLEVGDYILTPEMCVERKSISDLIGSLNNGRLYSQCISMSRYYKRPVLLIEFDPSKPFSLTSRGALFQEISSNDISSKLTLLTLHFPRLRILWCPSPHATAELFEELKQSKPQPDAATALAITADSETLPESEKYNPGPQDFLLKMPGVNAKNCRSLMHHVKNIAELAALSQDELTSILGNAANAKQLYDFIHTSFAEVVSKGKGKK
T1 sequence (P07992 1-297): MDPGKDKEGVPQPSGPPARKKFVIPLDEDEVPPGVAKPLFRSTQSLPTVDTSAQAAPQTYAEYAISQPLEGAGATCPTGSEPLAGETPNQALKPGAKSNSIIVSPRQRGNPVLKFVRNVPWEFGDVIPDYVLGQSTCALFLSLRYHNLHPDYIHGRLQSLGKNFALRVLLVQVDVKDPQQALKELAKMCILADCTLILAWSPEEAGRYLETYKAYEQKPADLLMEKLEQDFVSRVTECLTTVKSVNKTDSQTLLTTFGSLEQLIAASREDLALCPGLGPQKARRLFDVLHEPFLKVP
Kind of experiment: EMSA, binding of ERCC1-XPF to DNA. To be noted: for effect on binding of purified ERCC1-XPF to DNA: compound titration, concentrations used in further in vitro experiments.

The subject of the next experiment is H460 cells. Kind of experiment: Cisplatin intrastrand adduct repair by ELISA. It is filed as cell-based. To be noted: 72 hours (last time point), compound 15 μM 2 h then cisplatin at IC90 2 h; relative to 0 hour.
The subject of the next experiment is ERCC1 protein. Nature of the experiment: Western blot of ERCC1 protein stability. Type of experiment: cell-based. As to conditions: 50 μM, 24, 48 and 72 hours, compared to cisplatin control treatment. The protocol:
In order to study if the compounds' inhibitory activity of ERCC1-XPF incision is due to inhibition of DNA binding ability, we performed EMSAs. One possibility for ERCC1-XPF enzyme inhibition is via inhibition of the ERCC1-XPF binding to DNA. In this assay, we incubated the titrated Hit 1 or 2 respectively with purified ERCC1-XPF on ice and reactions were initiated by the addition of the 5'-[^32P] radiolabeled DNA substrate 37°C. The samples were separated on a 10% native gel and the products were visualized via phosphorimager analysis. […] If these compounds were affecting the protein-protein interaction between ERCC1 and XPF, we would expect to observe loss of protein following treatment similar to what we have observed with ERCC1 and XPF knockdowns.
Supplementary Figure S3: A. Analysis of 16168 and 143099 on XPG incision activity. Compounds were titrated and inhibition of
XPG incision activity was quantified for 16168 (open circles) or 143099 (filled circles). The results are presented as the mean ± SEM of 3
independent experiments. B. Western bots assessing ERCC1 protein stability following cisplatin (IC50 concentration), 143099 (50 μM) and […]

Structures are written as SMILES.

Protocol for ERCC1-XPF: In order to study if the compounds' inhibitory activity of ERCC1-XPF incision is due to inhibition of DNA binding ability, we performed EMSAs [23]. […] In this assay, we incubated the titrated Hit 1 or 2 respectively with purified ERCC1-XPF on ice and reactions were initiated by the addition of the 5'-[^32P] radiolabeled DNA substrate 37°C. The samples were separated on a 10% native gel and the products were visualized via phosphorimager analysis.
Sciences Core at Karmanos Cancer Institute using DNA Binding-electrophoretic mobility shift assay
was used for testing the effect of compounds on the DNA
in SF9 insect cells using a baculovirus expression system requires metal for DNA incision, MgCl2 was excluded
0.1M EDTA was added to the
Post incubation, glutaraldehyde was added to a final
column, which was initially loaded and washed with a low minutes at 37°C. The reaction was run on a 10% native

Regarding `Cc1ccc(S(=O)(=O)Oc2cc(S(=O)(=O)O)cc3cc(S(=O)(=O)O)cc(N)c23)cc1` [NSC16168], on ERCC1-XPF, the “effect on binding of purified ERCC1-XPF to DNA” value was “does not affect DNA binding of ERCC1-XPF”. The “effect on binding of ERCC1-XPF to DNA at the highest concentrations” value on ERCC1-XPF (highest concentrations) is “minor effect on the DNA binding”. Further, the intrastrand adducts remaining in the experiment on H460 cells was ~ 60%. In addition, the “effect on ERCC1 protein levels” value in the experiment with ERCC1 protein is recorded as “neither Hit 1 nor Hit 2 affects ERCC1 protein levels”.

On to `Oc1cc(O)c2c(c1)OC(c1ccc(O)c(O)c1)C(O)C2c1c(O)cc(O)c2c1OC(c1ccc(O)c(O)c1)C(O)C2` (stereo not shown) [NSC143099], for which the “effect on binding of purified ERCC1-XPF to DNA” value on ERCC1-XPF was “does not affect the binding of purified ERCC1-XPF to DNA”. Moreover, the intrastrand adducts remaining with H460 cells is ~ 65%. For the same compound, the “effect on ERCC1 protein levels” value in the experiment on ERCC1 protein is reported as “neither Hit 1 nor Hit 2 affects ERCC1 protein levels”.
